The nature of the data set: pH stability of triketide lactones in fermentation supernatant. Particulars: pH values above 6–8 (FIG. 1). In kind it is physicochemical. On the procedure: Samples were centrifuged to remove cells and insoluble media components. If necessary, supernatants were diluted in 1:1 acetonitrile-water with 0.1% acetic acid. Samples were analyzed by HPLC-MS/MS, quantitating by comparison with an internal analytical standard of 2,4-dimethyl-3-hydroxyoctanoic acid δ-lactone (“P-TKL”). In cases where the purity of the analytic standard was doubtful, titers were renorted as arbitrary units. Samples were injected onto a C18 reversed-phase HPLC column and eluted with a gradient of acetonitrile in water containing 0.1% formic acid. Triketide lactones were detected using multiple reaction monitoring of the following MS/MS transitions: TKL: m/z 173 to 109; CM-TKL: m/z 193 to 119; V-TKL: m/z 171 to 107; and P-TKL: m/z 181 to 123.
To test the stability of CM-TKL and V-TKL in fermentation supernatant, the following experiment was undertaken. Supernatant from flask cultures was collected at the end of an experiment by centrifugation at 2700×g for 20 minutes. The supernatant was divided into four portions. The pH of the control portion was adjusted to 3.5, and that sample was frozen at −20° C. […] The samples were incubated for 18 hours at 30° C. then analyzed for product as described previously with the data reported as percent of the control.

As for `C[C@@H]1[C@H](O)[C@@H](C)C(=O)O[C@@H]1CCl` [CM-TKL], the “stability in fermentation broth” value is given as “unstable”.
On to `C=C[C@H]1OC(=O)[C@H](C)[C@@H](O)[C@H]1C` [V-TKL], for which the “stability in fermentation broth” value is reported as “unstable”.

For the origin of these results see US7067290B2, “Method for production of polyketides” (Kosan Biosciences Incorporated, priority 2002, dated 2006).
